Assay results reported in US6472348B1, “Pyridone derivatives and herbicides” (Kumiai Chemical Industry Co., Ltd., priority 1996, dated 2002).

Key:
Assay type in all cases: in vivo
pale smartweed (Po) [1] = experiment: Test Example 5: crop plant selectivity by upland field soil treatment (wheat), herbicidal effects; parameters: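 grade of growth control; 5 = at least 90%; 4 = 70 to 90%; 3 = 50 to 70%; 2 = 30 to 50%; 1 = 10 to 30%; 0 = under 10%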; details: dose 6.3 g ai/10a, 21st day after application
How it was run: (§1)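 Upland soil-treatment selectivity test: crop and weed seeds are sown together in sand-filled pots, soil-covered, then treated and grown under glass until rating at 21 days.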

[2] = system: common lambsquarters (Ch); experiment: as above; parameters: scale not given here; details: dose 6.3 g ai/10a, 21st day after application
How it was run: as §1

China jute (Ab) [3] = experiment: as above; parameters: scale not given here; details: dose 6.3 g ai/10a, 21st day after application
How it was run: as §1

green foxtail (Se) [4] = experiment: as above; parameters: scale not given here; details: dose 6.3 g ai/10a, 21st day after application
How it was run: as §1

slender amaranth (Am) [5] = experiment: as above; parameters: scale not given here; details: dose 6.3 g ai/10a, 21st day after application
How it was run: as §1

pale smartweed (Po) [6] = experiment: Test Example 10: crop plant selectivity by upland field foliage treatment (soybean), herbicidal effects; details: dose 1.6 g ai/10a, 14th day after treatment
How it was run: (§2)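 Soybean and weeds were grown in sand in a greenhouse for 2 weeks before foliar treatment. Herbicidal effect on weeds and phytotoxicity on soybean were scored on day 14 after treatment against a graded scale.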

[7] = system: common lambsquarters (Ch); experiment: as above; details: dose 1.6 g ai/10a, 14th day after treatment
How it was run: as §2

China jute (Ab) [8] = experiment: as above; details: dose 1.6 g ai/10a, 14th day after treatment
How it was run: as §2

slender amaranth (Am) [9] = experiment: as above; details: dose 1.6 g ai/10a, 14th day after treatment
How it was run: as §2

pale smartweed (Po) [10] = experiment: Test Example 7: crop plant selectivity by upland field soil treatment (corn), herbicidal effects; parameters: scale not given here; details: dose 6.3 g ai/10a, 21st day after application
How it was run: (§3)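 Greenhouse pot test in sand with soil cover over seeds of corn and weeds sown together; scored 21 d after treatment.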

China jute (Ab) [11] = experiment: as above; parameters: scale not given here; details: dose 6.3 g ai/10a, 21st day after application
How it was run: as §3

green foxtail (Se) [12] = experiment: as above; parameters: scale not given here; details: dose 6.3 g ai/10a, 21st day after application
How it was run: as §3

SMILES	Herbicidal effects Po (pale smartweed (Po) [1])	Herbicidal effects Ch [2]	Herbicidal effects Ab (China jute (Ab) [3])	Herbicidal effects Se (green foxtail (Se) [4])	Herbicidal effects Am (slender amaranth (Am) [5])	Herbicidal effects Po (pale smartweed (Po) [6])	Herbicidal effects Ch [7]	Herbicidal effects Ab (China jute (Ab) [8])	Herbicidal effects Am (slender amaranth (Am) [9])	Herbicidal effects Po (pale smartweed (Po) [10])	Herbicidal effects Ab (China jute (Ab) [11])	Herbicidal effects Se (green foxtail (Se) [12])
Cn1c(C(F)(F)F)ccc(-c2cc(OCCCl)c(Cl)cc2F)c1=O [1-171]	5	5	5	5	5	5	5	5	5	5	5	5
CCON=Cc1cc(-c2ccc(C(F)(F)F)n(C)c2=O)c(F)cc1Cl [Compound 1-187]	5	5	5	5	5	5	5	5	5	5	5	5
CSCOc1cc(-c2ccc(C(F)(F)F)n(C)c2=O)c(F)cc1Cl [Compound 1-208]	4	5	5	5	5	5	5	5	5	4	5	5
CCCc1cc2c(-c3ccc(C(F)(F)F)n(C)c3=O)c(F)cc(Cl)c2o1 [Compound 4-3]	5	5	5	5	5	5	5	5	5	5	5	5
CCc1cc2c(Cl)cc(F)c(-c3ccc(C(F)(F)F)n(C)c3=O)c2o1 [Compound 5-2]	5	5	5	5	5	5	5	5	5	5	5	5
